Where a name gives a salt, the structure may show the parent alone.
What was measured:
Assay type in all cases: in vivo
[1] = test system: glyphosate-resistant Amaranthus palmeri in which the number of copies of EPSPS gene had been increased; test: Foliar spray pot test in greenhouse, herbicidal effect (Example 29); conditions: foliar spray 200 L/ha at 18 days, rated 14 days after treatment, rating 0 to 100
Procedure: (§1) In a plastic pot filled with soli were seeded glyphosate-resistant Amaranthus palmeri in which the number of copies of EPSPS gene had been increased (produced by Azlin Seed Service) and glyphosate-sensitive Amaranthus palmeri (produced by Azlin Seed Service). The weeds were cultivated in a greenhouse for 18 days, and then an aqueous spray liquid [i.e., a liquid prepared by diluting a predetermined amount of a trifludimoxazin formulation (i.e., an emulsifiable concentrate prepared by mixing 20 parts of trifludimoxazin with 80 parts of a liquid cocktail (i.e., a mixture of 5 parts of cyclohexanone and 1 part of SORPOL 2680X (manufactured by TOHO Chemical Industry Co., Ltd.))) with water containing a spreading agent] was sprayed uniformly from above the weeds at the amount of 200 L/ha using a sprayer. Subsequently, the weeds were allowed to grow in a greenhouse for 14 days, and then the herbicidal effect was examined. As a reference example, the same procedure was carried out, except that the trifludimoxazin formulation was replaced with a predetermined amount of a glyphosate formulation (i.e., a soluble liquid containing 660 g/L of glyphosate potassium salt: “ROUNDUP MAXLOAD” (manufactured by Nissan Chemical Corporation). The results are shown in the table 1.

[2] = test system: glyphosate-sensitive Amaranthus palmeri; test: as above; conditions: foliar spray 200 L/ha at 18 days, rated 14 days after treatment, rating 0 to 100
Procedure: as §1

[3] = test system: glyphosate-resistant weeds (Amaranthus palmeri, waterhemp, kochia, marestail, Guernsey fleabane, fleabane, goosegrass, darnel, volunteer glyphosate-tolerant …); test: Soil treatment pot test on day of seeding (Example 1); conditions: soil treatment at 6.25, 12.5, 25, 50, 100 or 150 g/ha; 200 L/ha; twenty-eight days after the treatment
Procedure: (§2) In a plastic pot filled with soil are seeded glyphosate-resistant Amaranthus palmeri in which the number of copies of EPSPS gene has been increased, glyphosate-resistant waterhemp in which the number of copies of EPSPS gene has been increased, glyphosate-resistant kochia in which the number of copies of EPSPS gene has been increased, marestail which is resistant to glyphosate by involving an ABC transporter, Guernsey fleabane which is resistant to glyphosate by involving an ABC transporter, fleabane which is resistant to glyphosate by involving an ABC transporter, glyphosate-resistant goosegrass having Thr102Ile, glyphosate-resistant goosegrass having Pro106Ser, glyphosate-resistant goosegrass having Pro106Ala, glyphosate-resistant goosegrass having Pro106Leu, glyphosate-resistant goosegrass having Thr102Ile and Pro106Ser, glyphosate-resistant darnel having Thr102Ile, glyphosate-resistant darnel having Pro106Ser, glyphosate-resistant darnel having Pro106Ala, glyphosate-resistant darnel having Pro106Leu, volunteer glyphosate-tolerant soybean, and volunteer glyphosate-tolerant cotton. On the same day, the soil is treated with trifludimoxazin at the application rate of 6.25, 12.5, 25, 50, 100 or 150 g/ha. The amount of a liquid sprayed is 200 L/ha. Subsequently, the plants are cultivated in a greenhouse.

[4] = test system: glyphosate-resistant weeds (Amaranthus palmeri, waterhemp, kochia, marestail, Guernsey fleabane, fleabane, goosegrass, darnel, volunteer glyphosate-tolerant …); test: Foliar treatment pot test 21 days after seeding (Example 2); conditions: foliage application at 6.25, 12.5, 25, 50, 100 or 150 g/ha; 200 L/ha; fourteen days after the treatment
Procedure: as §2, with “The plants are cultivated in a greenhouse for 21 days, and then trifludimoxazin is applied to foliage of” for “On”, “plants” for “same day, the soil is treated with trifludimoxazin”, “at” for “at the”

Row | SMILES | Effect on glyphosate-resistant Amaranthus palmeri ([1]; application rate 6.25 g/ha) | Effect on glyphosate-resistant Amaranthus palmeri ([1]; application rate 12.5 g/ha) | Effect on glyphosate-resistant Amaranthus palmeri ([1]; application rate 25 g/ha) | Effect on glyphosate-sensitive Amaranthus palmeri ([2]; application rate 6.25 g/ha) | Effect on glyphosate-sensitive Amaranthus palmeri ([2]; application rate 12.5 g/ha) | Effect on glyphosate-sensitive Amaranthus palmeri ([2]; application rate 25 g/ha) | effect against the weeds [3] | effect against the weeds [4] | Effect on glyphosate-resistant Amaranthus palmeri ([1]; application rate 1540 g/ha) | Effect on glyphosate-resistant Amaranthus palmeri ([1]; application rate 6160 g/ha) | Effect on glyphosate-sensitive Amaranthus palmeri ([2]; application rate 385 g/ha) | Effect on glyphosate-sensitive Amaranthus palmeri ([2]; application rate 1540 g/ha)
1 | C#CCN1C(=O)C(F)(F)Oc2cc(F)c(-n3c(=O)n(C)c(=S)n(C)c3=O)cc21 [Trifludimoxazin, trifludimoxazin] | 100 | 100 | 100 | 65 | 70 | 80 | significant effect | significant effect | – | – | – | –
2 | O=C(O)CNCP(=O)(O)O [Glyphosate potassium salt, glyphosate potassium salt] | – | – | – | – | – | – | – | – | 20 | 70 | 100 | 100
